The term inhibition denotes the share of the control response that was lost under treatment.

SMILES strings stand for the structures.

The first test has as its system MDA-MB231/ATCC. In words: NCI-60 single-dose screen. It is filed as cell-based. The conditions noted are these: Homo sapiens, MDA-MB-231, single dose 10 µM, '-' = no inhibition, read-out: % Growth Inhibition. In a few lines:
(§1)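 Single concentration (10 μM) per compound, assayed by the NCI DTP against its 60-line panel covering leukemia, lung, colon, CNS, melanoma, ovarian, renal, prostate and breast cancers.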
Turning to `C=CCSc1nc(-c2ccc(Cl)cc2)cc(-c2ccc(OC)cc2)n1` [Compound 13, 2-(Allylthio)-4-(4-chlorophenyl)-6-(4-methoxyphenyl)pyrimidine], the inhibition at 10 µM was < 0%.

The next test relates to SR. In words: NCI-60 single-dose screen. It is filed as cell-based. The conditions noted are these: Homo sapiens, single dose 10 µM, '-' = no inhibition, read-out: % Growth Inhibition. In a few lines: as §1
Regarding `C=CCSc1nc(-c2ccc(Cl)cc2)cc(-c2ccc(OC)cc2)n1` [Compound 13, 2-(Allylthio)-4-(4-chlorophenyl)-6-(4-methoxyphenyl)pyrimidine], the inhibition at 10 µM was found to be 19.9%.

The next test deals with K-562. As to the kind of experiment: NCI-60 single-dose screen. Type of test: cell-based. The following applies: Homo sapiens, K562, single dose 10 µM, '-' = no inhibition, read-out: % Growth Inhibition. In a few lines: as §1
As to `C=CCSc1nc(-c2ccc(Cl)cc2)cc(-c2ccc(OC)cc2)n1` [Compound 13, 2-(Allylthio)-4-(4-chlorophenyl)-6-(4-methoxyphenyl)pyrimidine], the inhibition at 10 µM is 15.6%.

Another test deals with OVCAR-4. As to the kind of experiment: NCI-60 single-dose screen. The following applies: Homo sapiens, single dose 10 µM, '-' = no inhibition, read-out: % Growth Inhibition. Type of test: cell-based. In outline: as §1
Regarding `C=CCSc1nc(-c2ccc(Cl)cc2)cc(-c2ccc(OC)cc2)n1` [Compound 13, 2-(Allylthio)-4-(4-chlorophenyl)-6-(4-methoxyphenyl)pyrimidine], the inhibition at 10 µM worked out at 12.1%.

A further test concerns LOX IMVI. In words: NCI-60 single-dose screen. The conditions noted are these: Homo sapiens, single dose 10 µM, '-' = no inhibition, read-out: % Growth Inhibition. It is filed as cell-based. In a few lines:
as §1
On to `C=CCSc1nc(-c2ccc(Cl)cc2)cc(-c2ccc(OC)cc2)n1` [Compound 13, 2-(Allylthio)-4-(4-chlorophenyl)-6-(4-methoxyphenyl)pyrimidine], for which the inhibition at 10 µM stood at 4.72%.

The subject of another test is IGROV1. As to the kind of experiment: NCI-60 single-dose screen. Type of test: cell-based. The conditions noted are these: Homo sapiens, IGROV-1, single dose 10 µM, '-' = no inhibition, read-out: % Growth Inhibition. In a few lines:
as §1
`C=CCSc1nc(-c2ccc(Cl)cc2)cc(-c2ccc(OC)cc2)n1` [Compound 13, 2-(Allylthio)-4-(4-chlorophenyl)-6-(4-methoxyphenyl)pyrimidine]: the inhibition at 10 µM is < 0%.

The test system of a further test is NCI-H522. In words: NCI-60 single-dose screen. Type of test: cell-based. The following applies: Homo sapiens, single dose 10 µM, '-' = no inhibition, read-out: % Growth Inhibition. In a few lines:
as §1
In the case of `C=CCSc1nc(-c2ccc(Cl)cc2)cc(-c2ccc(OC)cc2)n1` [Compound 13, 2-(Allylthio)-4-(4-chlorophenyl)-6-(4-methoxyphenyl)pyrimidine], the inhibition at 10 µM came to 10.2%.

A further test concerns ACHN 1. In words: NCI-60 single-dose screen. Type of test: cell-based. The conditions noted are these: Homo sapiens, single dose 10 µM, '-' = no inhibition, read-out: % Growth Inhibition. In a few lines: as §1
As for `C=CCSc1nc(-c2ccc(Cl)cc2)cc(-c2ccc(OC)cc2)n1` [Compound 13, 2-(Allylthio)-4-(4-chlorophenyl)-6-(4-methoxyphenyl)pyrimidine], the inhibition at 10 µM is < 0%.

A further test relates to 786-0. As to the kind of experiment: NCI-60 single-dose screen. It is filed as cell-based. The following applies: Homo sapiens, single dose 10 µM, '-' = no inhibition, read-out: % Growth Inhibition. In a few lines:
as §1
Regarding `C=CCSc1nc(-c2ccc(Cl)cc2)cc(-c2ccc(OC)cc2)n1` [Compound 13, 2-(Allylthio)-4-(4-chlorophenyl)-6-(4-methoxyphenyl)pyrimidine], the inhibition at 10 µM came out at 3.01%.

The subject of a further test is MDA-MB-468. As to the kind of experiment: NCI-60 single-dose screen. It is filed as cell-based. The conditions noted are these: Homo sapiens, single dose 10 µM, '-' = no inhibition, read-out: % Growth Inhibition. In outline: as §1
In the case of `C=CCSc1nc(-c2ccc(Cl)cc2)cc(-c2ccc(OC)cc2)n1` [Compound 13, 2-(Allylthio)-4-(4-chlorophenyl)-6-(4-methoxyphenyl)pyrimidine], the inhibition at 10 µM came to 16.2%.

For a further test, the system named is HCT-15. As to the kind of experiment: NCI-60 single-dose screen. It is filed as cell-based. The following applies: Homo sapiens, single dose 10 µM, '-' = no inhibition, read-out: % Growth Inhibition. In a few lines:
as §1
Turning to `C=CCSc1nc(-c2ccc(Cl)cc2)cc(-c2ccc(OC)cc2)n1` [Compound 13, 2-(Allylthio)-4-(4-chlorophenyl)-6-(4-methoxyphenyl)pyrimidine], the inhibition at 10 µM amounted to 7.93%.

A further test concerns A549/ATCC. As to the kind of experiment: NCI-60 single-dose screen. The conditions noted are these: Homo sapiens, single dose 10 µM, '-' = no inhibition, read-out: % Growth Inhibition. Type of test: cell-based. In outline: as §1
For the molecule `C=CCSc1nc(-c2ccc(Cl)cc2)cc(-c2ccc(OC)cc2)n1` [Compound 13, 2-(Allylthio)-4-(4-chlorophenyl)-6-(4-methoxyphenyl)pyrimidine], the inhibition at 10 µM is < 0%.

A further test relates to CCRF-CEM. In words: NCI-60 single-dose screen. It is filed as cell-based. The conditions noted are these: Homo sapiens, single dose 10 µM, '-' = no inhibition, read-out: % Growth Inhibition. In outline: as §1
Turning to `C=CCSc1nc(-c2ccc(Cl)cc2)cc(-c2ccc(OC)cc2)n1` [Compound 13, 2-(Allylthio)-4-(4-chlorophenyl)-6-(4-methoxyphenyl)pyrimidine], the inhibition at 10 µM turned out to be 3.79%.

The subject of another test is SF-539. In words: NCI-60 single-dose screen. It is filed as cell-based. The following applies: Homo sapiens, single dose 10 µM, '-' = no inhibition, read-out: % Growth Inhibition. In outline:
as §1
With `C=CCSc1nc(-c2ccc(Cl)cc2)cc(-c2ccc(OC)cc2)n1` [Compound 13, 2-(Allylthio)-4-(4-chlorophenyl)-6-(4-methoxyphenyl)pyrimidine], the inhibition at 10 µM was < 0%.

In the next test the test system is SK-OV-3. In words: NCI-60 single-dose screen. It is filed as cell-based. The following applies: Homo sapiens, single dose 10 µM, '-' = no inhibition, read-out: % Growth Inhibition. In outline:
as §1
As to `C=CCSc1nc(-c2ccc(Cl)cc2)cc(-c2ccc(OC)cc2)n1` [Compound 13, 2-(Allylthio)-4-(4-chlorophenyl)-6-(4-methoxyphenyl)pyrimidine], the inhibition at 10 µM was < 0%.

In another test the test system is OVCAR-5. As to the kind of experiment: NCI-60 single-dose screen. It is filed as cell-based. The following applies: Homo sapiens, single dose 10 µM, '-' = no inhibition, read-out: % Growth Inhibition. In outline:
as §1
Take `C=CCSc1nc(-c2ccc(Cl)cc2)cc(-c2ccc(OC)cc2)n1` [Compound 13, 2-(Allylthio)-4-(4-chlorophenyl)-6-(4-methoxyphenyl)pyrimidine]: the inhibition at 10 µM was < 0%.

For another test, the system named is NCI/ADR-RES. As to the kind of experiment: NCI-60 single-dose screen. Type of test: cell-based. The following applies: Homo sapiens, single dose 10 µM, '-' = no inhibition, read-out: % Growth Inhibition. In a few lines:
as §1
In the case of `C=CCSc1nc(-c2ccc(Cl)cc2)cc(-c2ccc(OC)cc2)n1` [Compound 13, 2-(Allylthio)-4-(4-chlorophenyl)-6-(4-methoxyphenyl)pyrimidine], the inhibition at 10 µM is 6.28%.

A further test relates to T-47D. In words: NCI-60 single-dose screen. The conditions noted are these: Homo sapiens, T47D, single dose 10 µM, '-' = no inhibition, read-out: % Growth Inhibition. It is filed as cell-based. In outline: as §1
In the case of `C=CCSc1nc(-c2ccc(Cl)cc2)cc(-c2ccc(OC)cc2)n1` [Compound 13, 2-(Allylthio)-4-(4-chlorophenyl)-6-(4-methoxyphenyl)pyrimidine], the inhibition at 10 µM came out at 18.4%.

Another test concerns EKVX. In words: NCI-60 single-dose screen. The following applies: Homo sapiens, single dose 10 µM, '-' = no inhibition, read-out: % Growth Inhibition. Type of test: cell-based. In a few lines: as §1
In the case of `C=CCSc1nc(-c2ccc(Cl)cc2)cc(-c2ccc(OC)cc2)n1` [Compound 13, 2-(Allylthio)-4-(4-chlorophenyl)-6-(4-methoxyphenyl)pyrimidine], the inhibition at 10 µM came to 2.11%.

For a further test, the system named is A498. In words: NCI-60 single-dose screen. Type of test: cell-based. The following applies: Homo sapiens, single dose 10 µM, '-' = no inhibition, read-out: % Growth Inhibition. In a few lines:
as §1
`C=CCSc1nc(-c2ccc(Cl)cc2)cc(-c2ccc(OC)cc2)n1` [Compound 13, 2-(Allylthio)-4-(4-chlorophenyl)-6-(4-methoxyphenyl)pyrimidine]: the inhibition at 10 µM was < 0%.

For a further test, the system named is UACC-257. In words: NCI-60 single-dose screen. Type of test: cell-based. The conditions noted are these: Homo sapiens, single dose 10 µM, '-' = no inhibition, read-out: % Growth Inhibition. In a few lines: as §1
For `C=CCSc1nc(-c2ccc(Cl)cc2)cc(-c2ccc(OC)cc2)n1` [Compound 13, 2-(Allylthio)-4-(4-chlorophenyl)-6-(4-methoxyphenyl)pyrimidine], the inhibition at 10 µM was < 0%.

The test system of the next test is HOP-62. As to the kind of experiment: NCI-60 single-dose screen. The conditions noted are these: Homo sapiens, single dose 10 µM, '-' = no inhibition, read-out: % Growth Inhibition. Type of test: cell-based. In outline:
as §1
Turning to `C=CCSc1nc(-c2ccc(Cl)cc2)cc(-c2ccc(OC)cc2)n1` [Compound 13, 2-(Allylthio)-4-(4-chlorophenyl)-6-(4-methoxyphenyl)pyrimidine], the inhibition at 10 µM is < 0%.

For a further test, the system named is RPMI-8226. In words: NCI-60 single-dose screen. Type of test: cell-based. The following applies: Homo sapiens, single dose 10 µM, '-' = no inhibition, read-out: % Growth Inhibition. In a few lines: as §1
Regarding `C=CCSc1nc(-c2ccc(Cl)cc2)cc(-c2ccc(OC)cc2)n1` [Compound 13, 2-(Allylthio)-4-(4-chlorophenyl)-6-(4-methoxyphenyl)pyrimidine], the inhibition at 10 µM was found to be 4.91%.

The values are drawn from PMC11576293, “New series of 4,6-diaryl pyrimidines: facile synthesis and antiproliferative activity as dual EGFR/VEGFR-2 inhibitors” (Frontiers in Chemistry, 2024).
